Values joined by “and” are separate entries in the source; they are usually repeats but may differ in a detail not shown here. Identical values can stand only once.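 Assay format: 96-well plates, 48-hour exposure. GI50: concentration for 50% inhibition of growth. Definition used: TGI = concentration required for complete inhibition of growth.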
Assays:
Test in all cases: inhibition of tumour cell growth, NCI panel, 48 h
[1] = test system: K-562 leukemia
[2] = test system: M19-MEL melanoma
[3] = test system: MOLT-4 leukemia
[4] = test system: SF-539 CNS
[5] = test system: SK-MEL-28 melanoma
[6] = test system: SNB-78 CNS
[7] = test system: UACC-62 melanoma
[8] = test system: UO-31 renal
[9] = test system: HOP-92 NSCLC
[10] = test system: HS 578T breast

Row | SMILES | TGI [1] | TGI [2] | TGI [3] | TGI [4] | TGI [5] | TGI [6] | TGI [7] | TGI [8] | TGI [9] | TGI [10] [µM] | GI50 [9] | GI50 [1] | GI50 [3] [µM] | GI50 [6] | GI50 [7] | GI50 [8]
1 | Cc1ccc(/C=C2\CCCCC2=O)cc1 | 77.4 µM | > 100 µM | 45.4 µM | > 100 µM | > 100 µM | > 100 µM | > 100 µM | > 100 µM |  |  |  |  |  |  |  | 
2 | CCCCCCCCCC1CC(=O)OC2=C1C(=O)CCC2 (configuration not stated) | > 100 µM | > 100 µM | > 100 µM | > 100 µM | > 100 µM | > 100 µM | > 100 µM | > 100 µM | > 100 µM |  |  |  |  |  |  | 
3 | COc1ccc(N=NC2=C(O)CCC2=O)cc1 | > 100 µM | > 100 µM | > 100 µM | > 100 µM | > 100 µM | > 100 µM | 30.6 µM | > 100 µM | > 100 µM |  |  |  |  |  |  | 
4 | COc1ccc(C(C2=C(O)CC(C)OC2=O)C2=C(O)CC(C)OC2=O)cc1 (configuration not stated) | > 100 µM | > 100 µM | > 100 µM | > 100 µM | > 100 µM | > 100 µM | > 100 µM | > 100 µM |  |  |  |  |  |  |  | 
5 | CCO/C=C\C12CCCC1NC(c1ccccc1)(c1ccccc1)O2 (configuration not stated) | 56.7 µM | 64.5 µM | 46 µM | 66 µM | > 100 µM | > 100 µM | 53.4 µM | 73.6 µM | 52.3 µM |  |  |  |  |  |  | 
6 | COc1cc2[nH]c3c(c2cc1OC)CCN[C@@]31CC[C@@]2(CC3c4c(cc(OC)c(O)c42)CCN3C)C[C@@H]1OC (some centres not stated) | 56.5 µM | 40 µM | > 56.2 µM | 28.4 µM | 33.5 µM | > 100 µM | 45.3 µM | 57.8 µM | 69.3 µM | > 52.5 |  |  |  |  |  | 
7 | OC1OCC(COc2cc(Cl)c(Cl)cc2Cl)OC1O (configuration not stated) | > 100 µM | > 100 µM | > 100 µM | > 100 µM | > 100 µM | 79.7 µM | > 100 µM | > 100 µM | 94.3 µM |  |  |  |  |  |  | 
8 | NC(=O)NNC/C(Cl)=C(\Cl)C(=O)O | > 100 µM | > 100 µM | > 100 µM | > 100 µM | > 100 µM | > 100 µM | > 100 µM | > 100 µM |  |  |  |  |  |  |  | 
9 | COc1cc(C2c3cc4c(cc3[C@@H](NC3CCN(Cc5ccccc5)CC3)C3COC(=O)[C@H]23)OCO4)cc(OC)c1O (some centres not stated) | 12.8 µM and 2.84 µM | 2.1 µM and 1.9 µM | 0.0129 µM and 0.0258 µM | 0.263 µM and 0.194 µM | 2.84 µM and 1.57 µM | 6.03 µM and 8.24 µM | 1.38 µM and 0.216 µM | 1.11 µM and 0.275 µM | 0.73 µM and 0.0934 µM |  | 0.143 µM and 0.026 µM | 0.266 µM and 0.122 µM | < 0.01 | 2.04 µM and 0.887 µM | 0.217 µM and 0.0359 µM | 0.214 µM and 0.0879 µM
10 | O=C(NC1CCC[C@H]1OC(=O)c1ccccc1)c1ccccc1 (some centres not stated) | > 100 µM | > 100 µM | > 100 µM | > 100 µM | > 100 µM | > 100 µM | > 100 µM | > 100 µM | > 100 µM |  |  |  |  |  |  | 
11 | O=C(Nc1ccc(Br)cc1)C(=O)C(C(=O)c1ccc(Cl)c(Cl)c1)C1OC(=O)c2ccccc21 (configuration not stated) | > 100 µM | 31.1 µM | > 100 µM |  | 29.2 µM | > 100 µM | 26.4 µM | 43.2 µM | 58.4 µM |  |  |  |  |  |  | 
12 | CC1C(c2ccccc2)N(C)C(c2ccccc2)C(C)C1(O)c1ccccc1 (configuration not stated) | > 100 µM | > 100 µM | > 100 µM | > 100 µM | > 100 µM | > 100 µM | > 100 µM | > 100 µM | > 100 µM |  |  |  |  |  |  | 
13 | C/C(=N\N=C(N)N)C(CN1CCOCC1)C(c1ccccc1)c1c(O)c2ccccc2oc1=O (configuration not stated) | > 100 µM | > 100 µM | > 100 µM | > 100 µM | > 100 µM | > 100 µM | > 100 µM |  | 96.9 µM |  |  |  |  |  |  | 
14 | O=C1c2ccccc2C(=O)N1CC#CCO | > 100 µM | > 100 µM | > 100 µM | > 100 µM | > 100 µM | > 100 µM | > 100 µM | > 100 µM |  |  |  |  |  |  |  | 
15 | CC1(C)CC(=O)C(CC2C(=O)CCCC2=O)C(=O)C1 | > 100 µM | > 100 µM | > 100 µM | > 100 µM | > 100 µM | > 100 µM | > 100 µM | > 100 µM |  |  |  |  |  |  |  | 
16 | C=CCC1(CN(C)C)CC/C(=C\c2ccc3c(c2)OCO3)C1=O (configuration not stated) | > 100 µM | > 100 µM | 72.8 µM | > 100 µM | > 100 µM | > 100 µM | > 100 µM | > 100 µM | > 100 µM |  |  |  |  |  |  | 
17 | CC1(c2ccc(F)cc2)C2C(=O)NC(=O)C1C(=O)NC2=O (configuration not stated) | > 100 µM | > 100 µM | > 100 µM | > 100 µM | > 100 µM | > 100 µM | > 100 µM | > 100 µM | > 100 µM |  |  |  |  |  |  | 
18 | CCC(=O)OCOc1ccc(/C=C2\CCC(CN(C)C)C2=O)cc1 (configuration not stated) | 4.66 µM | 11.1 µM | 8.07 µM | 17.3 µM | 9.73 µM | 31.5 µM | 13.6 µM | 19 µM | 29.5 µM | > 79 |  |  |  |  |  | 
19 | C=CC1=C(C)C(/C=c2\[nH]/c(=C/c3[nH]c(CC4NC(=O)C(C)/C4=C\C)c(C)c3CCC(=O)O)c(CC(=O)O)c2C)=NC1=O (configuration not stated) | > 100 µM | > 100 µM | > 100 µM | > 100 µM | > 100 µM | > 100 µM | > 100 µM | > 100 µM | > 100 µM |  |  |  |  |  |  | 
20 | Cc1cc(N(CCC#N)S(=O)(=O)c2ccccc2)ccc1C=Nc1ccc(C(=O)O)cc1 | 17.9 µM | 7.32 µM | 13.8 µM | 30.7 µM | 28.3 µM | 34.7 µM | 37.1 µM | 21.8 µM | > 100 µM | > 100 |  |  |  |  |  | 
21 | COc1cc2c(cc1OC)C(Cl)C(c1ccc(Br)cc1)=C2Cl (configuration not stated) | 41.9 µM | 36 µM | 49.2 µM | 26.1 µM | 30.7 µM | 32.6 µM | 50.6 µM | 17.1 µM | 36.2 µM | 59.3 |  |  |  |  |  | 

Reference: PubChem BioAssay (NCI)
